Assay results from patent US20120029187A1, “HALOALKYLSULFONANILIDE DERIVATIVE” (Nissan Chemical Industries, Ltd., priority 2009, published 2012).

Tests used:
Format in all cases: in vivo
[1] = system: barnyardgrass; test: Test Example 1: herbicidal effects in preemergence treatment under submerged conditions; settings: dose 2.52 g/a
Procedure, shortened: (§1)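 Scoring 0 (<5% mortality) to 5 (≥90%) was done three weeks after preemergence application to the water surface of submerged (4 cm) alluvial soil, doses given as g per are. Weeds were seeded and 2.5-leaf rice transplanted on the treatment day; greenhouse at 25–30 °C.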

[2] = system: bulrush; test: as above; settings: dose 2.52 g/a
Procedure, shortened: as §1

[3] = system: ducksalad; test: as above; settings: dose 2.52 g/a
Procedure, shortened: as §1

[4] = system: transplanted rice; test: Test Example 1: preemergence treatment under submerged conditions, effect on crop; settings: dose 2.52 g/a
Procedure, shortened: as §1

[5] = system: barnyardgrass; test: Test Example 2: herbicidal effects during the vegetation period under submerged conditions; settings: treatment during the vegetation period under submerged conditions; dose 2.52 g/a
Procedure, shortened: (§2)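 Barnyardgrass, bulrush and ducksalad were co-sown in alluvial soil flooded to 4 cm and grown in a greenhouse at 25 to 30° C. At the 1- or 2-leaf stage, water-diluted emulsifiable concentrates went onto the water surface at set doses (g/a). Herbicidal effect was scored three weeks later on a graded scale.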

[6] = system: bulrush; test: as above; settings: treatment during the vegetation period under submerged conditions; dose 2.52 g/a
Procedure, shortened: as §2

[7] = system: ducksalad; test: as above; settings: treatment during the vegetation period under submerged conditions; dose 2.52 g/a
Procedure, shortened: as §2

[8] = system: Italian ryegrass; test: Test Example 3: herbicidal effects in soil treatment; settings: dose 3.2 g/a
Procedure, shortened: (§3)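 Seeds were sown in sterilized diluvial soil and covered with about 1.5 cm of soil. Compounds, formulated as emulsifiable concentrates and diluted with water, were sprayed evenly over the soil surface at set doses in g/a. Herbicidal effect was scored on a rating scale three weeks later.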

[9] = system: barnyardgrass; test: as above; settings: dose 3.2 g/a
Procedure, shortened: as §3

[10] = system: common chickweed; test: as above; settings: dose 3.2 g/a
Procedure, shortened: as §3

[11] = system: common lambsquater; test: as above; settings: dose 3.2 g/a
Procedure, shortened: as §3

[12] = system: common ragweed; test: as above; settings: dose 3.2 g/a
Procedure, shortened: as §3

[13] = system: giant foxtail; test: as above; settings: dose 3.2 g/a
Procedure, shortened: as §3

[14] = system: large crabgrass; test: as above; settings: dose 3.2 g/a
Procedure, shortened: as §3

[15] = system: posumbu knotweed; test: as above; settings: dose 3.2 g/a
Procedure, shortened: as §3

[16] = system: redroot pigweed; test: as above; settings: dose 3.2 g/a
Procedure, shortened: as §3

[17] = system: velvetleaf; test: as above; settings: dose 3.2 g/a
Procedure, shortened: as §3

[18] = system: water foxtail; test: as above; settings: dose 3.2 g/a
Procedure, shortened: as §3

[19] = system: Italian ryegrass; test: Test Example 4: herbicidal effect in foliage treatment; settings: dose 3.2 g/a
Procedure, shortened: (§4)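 Weeds and crops sown in sterilized diluvial soil under ~1.5 cm cover and grown in greenhouse at 25 to 30° C. At 14 days, water-diluted emulsifiable concentrate sprayed onto foliage at set doses (g/a); herbicidal effect scored on a rating scale three weeks after application.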

[20] = system: barnyardgrass; test: as above; settings: dose 3.2 g/a
Procedure, shortened: as §4

[21] = system: beadstraw; test: as above; settings: dose 3.2 g/a
Procedure, shortened: as §4

[22] = system: common chickweed; test: as above; settings: dose 3.2 g/a
Procedure, shortened: as §4

[23] = system: common lambsquater; test: as above; settings: dose 3.2 g/a
Procedure, shortened: as §4

[24] = system: common ragweed; test: as above; settings: dose 3.2 g/a
Procedure, shortened: as §4

[25] = system: giant foxtail; test: as above; settings: dose 3.2 g/a
Procedure, shortened: as §4

[26] = system: large crabgrass; test: as above; settings: dose 3.2 g/a
Procedure, shortened: as §4

[27] = system: posumbu knotweed; test: as above; settings: dose 3.2 g/a
Procedure, shortened: as §4

[28] = system: redroot pigweed; test: as above; settings: dose 3.2 g/a
Procedure, shortened: as §4

[29] = system: velvetleaf; test: as above; settings: dose 3.2 g/a
Procedure, shortened: as §4

[30] = system: water foxtail; test: as above; settings: dose 3.2 g/a
Procedure, shortened: as §4

[31] = three weeks after the application

CCOC(=O)N(c1ccccc1CN1OCC(C)(C)OC1=O)S(=O)(=O)C(F)(F)F [III-11] was tested, and the “A: barnyardgrass, herbicidal effect (evaluation scale 0-5)” value [1] was 5 (mortality of 90% or above (nearly complete death)), the “B: bulrush, herbicidal effect (evaluation scale 0-5)” value (from here on “B: bulrush, herbicidal effect”) [2] was 5 (mortality of 90% or above (nearly complete death)) and the “C: ducksalad, herbicidal effect (evaluation scale 0-5)” value (“C: ducksalad, herbicidal effect” below) [3] was 5 (mortality of 90% or above (nearly complete death)). For the same compound, the “a: transplanted rice, effect on crop (evaluation scale 0-5)” value [4] was 0 (mortality of less than 5% (almost ineffective)), the “A: barnyardgrass, herbicidal effect (evaluation scale 0-5)” value [5] was 5 (mortality of 90% or above (nearly complete death)) and the “B: bulrush, herbicidal effect” value [6] was 5 (mortality of 90% or above (nearly complete death)). The “C: ducksalad, herbicidal effect” value [7] was 5 (mortality of 90% or above (nearly complete death)), the “herbicidal effect, H: Italian ryegrass” value [8] was 4 (mortality of at least 70% and less than 90%) and the “herbicidal effect, A: barnyardgrass” value [9] was 5 (mortality of 90% or above (nearly complete death)). For the same compound, the “herbicidal effect, N: common chickweed” value [10] was 5 (mortality of 90% or above (nearly complete death)), the “herbicidal effect, L: common lambsquater” value [11] was 5 (mortality of 90% or above (nearly complete death)) and the “herbicidal effect, J: common ragweed” value [12] was 5 (mortality of 90% or above (nearly complete death)). The “herbicidal effect, E: giant foxtail” value [13] was 5 (mortality of 90% or above (nearly complete death)), the “herbicidal effect, D: large crabgrass” value [14] was 5 (mortality of 90% or above (nearly complete death)) and the “herbicidal effect, M: posumbu knotweed” value [15] was 5 (mortality of 90% or above (nearly complete death)). The “herbicidal effect, K: redroot pigweed” value [16] was 3 (mortality of at least 40% and less than 70%), the “herbicidal effect, I: velvetleaf” value [17] was 4 (mortality of at least 70% and less than 90%) and the “herbicidal effect, G: water foxtail” value [18] was 5 (mortality of 90% or above (nearly complete death)). The “H: Italian ryegrass, herbicidal effect” value [19, 31] was 3 (mortality of at least 40% and less than 70%), the “A: barnyardgrass, herbicidal effect” value [20, 31] was 5 (mortality of 90% or above (nearly complete death)) and the “O: beadstraw, herbicidal effect” value [21, 31] was 5 (mortality of 90% or above (nearly complete death)). For the same compound, the “N: common chickweed, herbicidal effect” value [22, 31] was 5 (mortality of 90% or above (nearly complete death)), the “L: common lambsquater, herbicidal effect” value [23, 31] was 4 (mortality of at least 70% and less than 90%) and the “J: common ragweed, herbicidal effect” value [24, 31] was 4 (mortality of at least 70% and less than 90%). The “E: giant foxtail, herbicidal effect” value [25, 31] was 4 (mortality of at least 70% and less than 90%), the “D: large crabgrass, herbicidal effect” value [26, 31] was 0 (mortality of less than 5% (almost ineffective)) and the “M: posumbu knotweed, herbicidal effect” value [27, 31] was 4 (mortality of at least 70% and less than 90%). For the same compound, the “K: redroot pigweed, herbicidal effect” value [28, 31] was 2 (mortality of at least 20% and less than 40%), the “I: velvetleaf, herbicidal effect” value [29, 31] was 4 (mortality of at least 70% and less than 90%) and the “G: water foxtail, herbicidal effect” value [30, 31] was 5 (mortality of 90% or above (nearly complete death)).
COCC1(C)CC(=O)N(Cc2ccccc2NS(=O)(=O)C(F)(F)F)CO1 (stereo not drawn) [II-54] was tested, and the “A: barnyardgrass, herbicidal effect (evaluation scale 0-5)” value [1] was 5 (mortality of 90% or above (nearly complete death)), the “B: bulrush, herbicidal effect” value [2] was 5 (mortality of 90% or above (nearly complete death)) and the “C: ducksalad, herbicidal effect” value [3] was 5 (mortality of 90% or above (nearly complete death)). The “a: transplanted rice, effect on crop (evaluation scale 0-5)” value [4] was 0 (mortality of less than 5% (almost ineffective)), the “A: barnyardgrass, herbicidal effect (evaluation scale 0-5)” value [5] was 5 (mortality of 90% or above (nearly complete death)) and the “B: bulrush, herbicidal effect” value [6] was 5 (mortality of 90% or above (nearly complete death)). The “C: ducksalad, herbicidal effect” value [7] was 5 (mortality of 90% or above (nearly complete death)), the “H: Italian ryegrass, herbicidal effect (evaluation scale 0-5)” value [8] was 5 (mortality of 90% or above (nearly complete death)) and the “A: barnyardgrass, herbicidal effect (evaluation scale 0-5)” value [9] was 5 (mortality of 90% or above (nearly complete death)). The “N: common chickweed, herbicidal effect (evaluation scale 0-5)” value [10] was 5 (mortality of 90% or above (nearly complete death)), the “L: common lambsquater, herbicidal effect (evaluation scale 0-5)” value [11] was 3 (mortality of at least 40% and less than 70%) and the “J: common ragweed, herbicidal effect (evaluation scale 0-5)” value [12] was 4 (mortality of at least 70% and less than 90%). The “E: giant foxtail, herbicidal effect (evaluation scale 0-5)” value [13] was 5 (mortality of 90% or above (nearly complete death)), the “D: large crabgrass, herbicidal effect (evaluation scale 0-5)” value [14] was 5 (mortality of 90% or above (nearly complete death)) and the “M: posumbu knotweed, herbicidal effect (evaluation scale 0-5)” value [15] was 5 (mortality of 90% or above (nearly complete death)). For the same compound, the “K: redroot pigweed, herbicidal effect (evaluation scale 0-5)” value [16] was 3 (mortality of at least 40% and less than 70%), the “I: velvetleaf, herbicidal effect (evaluation scale 0-5)” value [17] was 5 (mortality of 90% or above (nearly complete death)) and the “G: water foxtail, herbicidal effect (evaluation scale 0-5)” value [18] was 5 (mortality of 90% or above (nearly complete death)). The “H: Italian ryegrass, herbicidal effect” value ([19]; three weeks after application) was 5 (mortality of 90% or above (nearly complete death)), the “A: barnyardgrass, herbicidal effect” value ([20]; three weeks after application) was 5 (mortality of 90% or above (nearly complete death)) and the “O: beadstraw, herbicidal effect” value ([21]; three weeks after application) was 4 (mortality of at least 70% and less than 90%). For the same compound, the “N: common chickweed, herbicidal effect” value ([22]; three weeks after application) was 4 (mortality of at least 70% and less than 90%), the “L: common lambsquater, herbicidal effect” value ([23]; three weeks after application) was 2 (mortality of at least 20% and less than 40%) and the “J: common ragweed, herbicidal effect” value ([24]; three weeks after application) was 4 (mortality of at least 70% and less than 90%). For the same compound, the “E: giant foxtail, herbicidal effect” value ([25]; three weeks after application) was 5 (mortality of 90% or above (nearly complete death)), the “D: large crabgrass, herbicidal effect” value ([26]; three weeks after application) was 4 (mortality of at least 70% and less than 90%) and the “M: posumbu knotweed, herbicidal effect” value ([27]; three weeks after application) was 2 (mortality of at least 20% and less than 40%). For the same compound, the “K: redroot pigweed, herbicidal effect” value ([28]; three weeks after application) was 1 (mortality of at least 5% and less than 20%), the “I: velvetleaf, herbicidal effect” value ([29]; three weeks after application) was 5 (mortality of 90% or above (nearly complete death)) and the “G: water foxtail, herbicidal effect” value ([30]; three weeks after application) was 5 (mortality of 90% or above (nearly complete death)).
